Experimental data as given in patent US11535623B2, “Cryptate compounds” (Australian Nuclear Science and Technology Organisation, priority 2011, dated 2022).

Assays:
[1] = Clearance from the kidneys after administration to mice; type: in vivo, BALB/c mice; conditions: administered to balb/s mice; Cu complex
Source text: For example, the functional group of R^5 may be hydrophobic or may be hydrophilic. Having a hydrophobic entity will encourage clearance of a compound of the present invention that is complexed with a metal ion or metal ion radionuclide through the liver, while a hydrophilic entity will predominantly clear through the kidney.

[2] = 64Cu radiolabelling at room temperature; kinetically inert complexes; cited from earlier work

Compound | clearance / retention in the kidneys [1] | stability of 64Cu complex to excess EDTA challenge [2]
NC12CNCCNCC(N)(CNCCNC1)CNCCNC2.[Cu+2] [Cu-diamsar] | rapidly cleared from the kidneys | 
Nc1ccc(CNC23CNCCNCC(N)(CNCCNC2)CNCCNC3)cc1 [Sarar, 1-N-(4-aminobenzyl)-3,6,10,13,16,19-hexaazabicyclo[6.6.6]eicosane-1,8-diamine] |  | stable to excess EDTA challenge
C1CNCC2CNCCNCC(CN1)CNCCNC2.[Cu+2] [Cu-sar] | retained for a relatively longer period of time in the kidneys | 
